Laboratory results from ChEMBL document CHEMBL1142310, “Design and synthesis of substituted 4-oxo-4,5,6,7-tetrahydropyrazolo[1,5-a]pyrazine-2-carboxamides, novel HIV-1 integrase inhibitors” (Bioorg Med Chem Lett, 2008).

Experiments:
[1] = Inhibition of HIV1 integrase strand transfer activity; design: species or system Human immunodeficiency virus 1
[2] = test system: Human immunodeficiency virus 1; assay: Antiviral activity against HIV1 infected MT4 cells in presence of 10% FBS; assay type: functional; settings: Human immunodeficiency virus 1, MT4
[3] = test system: Human immunodeficiency virus 1; assay: Antiviral activity against HIV1 infected MT4 cells in presence of 50% NHS; assay type: functional, organism-based; settings: Human immunodeficiency virus 1, MT4

Row | Compound | IC50 [1] [nM] | IC95 [2] [nM] | IC95 [3] [nM] | IC50 [3] [nM]
1 | CN1C(=O)c2c(O)c(C(=O)NCc3ccc(F)cc3)nn2CC1c1ccccc1 (stereo not given) | 110 |  |  | 
2 | CNC(=O)c1nn2c(c1O)C(=O)N(Cc1ccc(F)cc1)CC2c1ccccc1 (stereo not given) | 130 | 10000 | > 10000 | 
3 | CNC(=O)c1cccc(C2CN(C)C(=O)c3c(O)c(C(=O)NCc4ccc(F)cc4)nn32)c1 (stereo not given) | ≤ 10 | 1000 | 1000 | 
4 | CC(C)C1CN(C)C(=O)c2c(O)c(C(=O)NCc3ccc(F)cc3)nn21 (stereo not given) | 20 | 63 | 250 | 
5 | CNC(=O)c1cc(F)ccc1CNC(=O)c1nn2c(c1O)C(=O)N(C)C[C@H]2c1ccccc1 | 62 | 250 | 250 | 
6 | CNC(=O)c1nn2c(c1O)C(=O)N(Cc1ccc(F)cc1)CC2 | 40 | 5000 |  | > 10000
7 | CN1CC(c2cccnc2)n2nc(C(=O)NCc3ccc(F)cc3)c(O)c2C1=O (stereo not given) | ≤ 10 | 250 | 500 | 
8 | CN1CCCn2nc(C(=O)NCc3ccc(F)cc3)c(O)c2C1=O | 470 |  |  | 
9 | CN1CC(c2csc(N)n2)n2nc(C(=O)NCc3ccc(F)cc3)c(O)c2C1=O (stereo not given) | ≤ 10 | 500 | 1000 | 
10 | CC1Cn2nc(C(=O)NCc3ccc(F)cc3)c(O)c2C(=O)N1C (stereo not given) | 40 |  |  | 
11 | CN1CC(c2ccccc2)n2nc(C(=O)NCc3ccc(F)cc3)c(O)c2C1=O (stereo not given) | ≤ 10 | 50 | 310 | 
12 | CN1CCn2nc(C(=O)NCc3ccc(F)cc3)c(O)c2C1=O | ≤ 10 | 630 | 2500 | 
13 | CC1CN(C)C(=O)c2c(O)c(C(=O)NCc3ccc(F)cc3)nn21 (stereo not given) | 13 |  |  | 
14 | CN1CCn2cc(C(=O)NCc3ccc(F)cc3)c(O)c2C1=O | 400 |  |  | 
15 | CNC(=O)c1cc(F)ccc1CNC(=O)c1nn2c(c1O)C(=O)N(C)C[C@@H]2c1ccccc1 | 74 | 63 | 63 | 
